{
  "source": "patent US7344845B2",
  "about": "“Olfactory receptor for isovaleric acid and related malodorants and use thereof in assays for identification of blockers of malodor” (Senomyx, Inc., priority 2001, dated 2008)",
  "tested_on": "individual murine olfactory neurons",
  "experiment": "Ca2+ imaging (fura-2) of isolated murine olfactory neurons contacted with isovaleric acid",
  "format": "cell-based, Balb/C mice",
  "protocol": "Essentially, individual murine olfactory neurons isolated from an enzymatically and mechanically dissociated preparations of murine olfactory epithelium. A very mild trypsin dissociation allows to obtain a single cell suspension in which neurons still bear their axon and dendrites and can therefore be picked based on their morphology. The neurons were loaded with a Ca^2+-sensing fluorescent dye (fura-2) and contacted with isovaleric acid (at 10–100 μM). Single neurons that responded to the isovaleric acid stimulus, as indicated by transient increases in the concentration of intracellular Ca2+ were identified in a microscope field and collected using a suction microcapillary. […]\nOlfactory neuroepithelium was dissected from Balb/C mice and placed in a small Petri dish with phosphate-buffered saline (PBS) without Ca^2+ and Mg^2+. […] After dissociation, the tissue was transferred into 5 ml PBS without Ca^2+ and Mg^2+ and the tissue was triturated very gently by pipetting up and down 4–5 times with plastic disposable, progress of cell dissociation was monitored under inverted microscope. […] Isolated olfactory sensory neurons were identified in an inverted microscope field either by their morphology alone (for random control neurons) or by the morphology and ability to respond to IVA as detected by Ca^2+-imaging. […]",
  "data": [
    {"molecule": "CC(C)CC(=O)O", "note": "[isovaleric acid]", "values": [
      {"measurement": "response of a single olfactory neuron indicated by changes in fura-2 fluorescence intensity ratios (340/380 nm)", "setting": "IVA at either 100 μM or 10 μM, single isolated neuron, FIG. 3", "result": "response"},
      {"measurement": "murine olfactory receptors activated (receptors expressed in IVA-responding neurons)", "setting": "isovaleric acid at 10–100 μM, eleven murine olfactory receptors, mOR IVA A through mOR IVA L", "result": "activated"}
    ]}
  ]
}
